Test results: ChEMBL document CHEMBL1144978, “A new series of potent benzodiazepine gamma-secretase inhibitors” (Bioorg Med Chem Lett, 2003)

Experiment: Inhibitory activity against human gamma-secretase using SH-SY5Y cells.
Format: cell-based

Point of comparison: `CN1C(=O)C(NC(=O)CCc2ccc(F)c(F)c2)N=C(c2ccc(C(N)=O)cc2)c2ccccc21` (centres undefined), IC50 29 nM. Against it:
- CN1C(=O)C(NC(=O)CCc2ccc(F)cc2)N=C(c2ccc(C(N)=O)cc2)c2ccccc21 (centres undefined) — 3.8-fold higher, 110 nM
- C[C@H](Cc1ccc(Cl)cc1Cl)C(=O)NC1N=C(c2ccc(C(N)=O)cc2)c2ccccc2N(C)C1=O (single isomer, unassigned; diastereomer B) — 32-fold higher, 920 nM
- COc1ccc(CCC(=O)NC2N=C(c3ccc(C(N)=O)cc3)c3ccccc3N(C)C2=O)cc1 (centres undefined) — 46-fold higher, 1340 nM
- CC(C)C(Cc1ccc(Cl)c(Cl)c1)C(=O)N[C@H]1N=C(c2ccccc2)c2ccccc2N(C)C1=O (single isomer, unassigned; diastereomer B) — 8.3-fold higher, 240 nM
- CN1C(=O)[C@@H](NC(=O)[C@@H](Cc2ccc(Cl)c(Cl)c2)N2CCCC2)N=C(c2ccccc2)c2ccccc21 — 14-fold higher, 405 nM
- CN1C(=O)[C@@H](NC(=O)[C@@H](Cc2ccc(Cl)c(Cl)c2)NC(=O)OC(C)(C)C)N=C(c2ccccc2)c2ccccc21 — 26-fold higher, 750 nM
- CN1C(=O)[C@@H](NC(=O)C(Cc2ccc(Cl)c(Cl)c2)c2ccsc2)N=C(c2ccccc2)c2ccccc21 (some centres undefined) — 3.4-fold higher, 100 nM
- C[C@@H](Cc1ccc(F)c(F)c1)C(=O)N[C@H]1N=C(c2ccccc2)c2ccccc2N(C)C1=O — 7.6-fold higher, 220 nM
- CN1C(=O)C(NC(=O)Cc2ccc(Cl)cc2Cl)N=C(c2ccc(C(N)=O)cc2)c2ccccc21 (centres undefined) — higher, > 10000 nM
- CN1C(=O)C(NC(=O)CCc2ccc(Cl)c(Cl)c2)N=C(c2ccc(C(N)=O)cc2)c2ccccc21 (centres undefined) — 2.4-fold lower, 12 nM
- CN1C(=O)C(NC(=O)CCc2cc(Cl)ccc2Cl)N=C(c2ccc(C(N)=O)cc2)c2ccccc21 (centres undefined) — 2.1-fold higher, 60 nM
- C[C@H](Cc1ccc(Cl)cc1Cl)C(=O)NC1N=C(c2ccc(C(N)=O)cc2)c2ccccc2N(C)C1=O (single isomer, unassigned; diastereomer A) — within 1.5-fold, 42 nM
- CN1C(=O)[C@@H](NC(=O)[C@H](Cc2ccc(Cl)c(Cl)c2)N2CCCC2)N=C(c2ccccc2)c2ccccc21 — 12-fold higher, 350 nM
- Cc1ccc(CCC(=O)NC2N=C(c3ccc(C(N)=O)cc3)c3ccccc3N(C)C2=O)cc1 (centres undefined) — 6.2-fold higher, 180 nM
- CN1C(=O)C(NC(=O)CCc2ccc(Cl)cc2)N=C(c2ccc(C(N)=O)cc2)c2ccccc21 (centres undefined) — 1.9-fold lower, 15 nM
- C[C@@H](Cc1ccc(Cl)cc1Cl)C(=O)N[C@@H]1N=C(c2ccccc2)c2ccccc2N(C)C1=O — higher, > 10000 nM
- CN1C(=O)C(NC(=O)CCc2ccccc2Cl)N=C(c2ccc(C(N)=O)cc2)c2ccccc21 (centres undefined) — 11-fold higher, 305 nM
- CN1C(=O)[C@@H](NC(=O)[C@H](Cc2ccc(Cl)c(Cl)c2)c2ccccc2)N=C(c2ccccc2)c2ccccc21 — 6.2-fold higher, 180 nM
- CN1C(=O)C(NC(=O)CCCc2ccccc2)N=C(c2ccc(C(N)=O)cc2)c2ccccc21 (centres undefined) — 170-fold higher, 5000 nM
- CN1C(=O)[C@@H](NC(=O)C(Cc2ccc(Cl)c(Cl)c2)c2ccncc2)N=C(c2ccccc2)c2ccccc21 (single isomer, unassigned; diastereomer B) — 6.6-fold higher, 190 nM
- CC(C)C(Cc1ccc(Cl)c(Cl)c1)C(=O)N[C@H]1N=C(c2ccccc2)c2ccccc2N(C)C1=O (single isomer, unassigned; diastereomer A) — 15-fold higher, 440 nM
- CN1C(=O)C(NC(=O)CCc2cc(F)cc(F)c2)N=C(c2ccc(C(N)=O)cc2)c2ccccc21 (centres undefined) — 3.8-fold higher, 110 nM
- CN1C(=O)[C@@H](NC(=O)[C@H](Cc2ccc(Cl)c(Cl)c2)c2ccc(F)cc2)N=C(c2ccccc2)c2ccccc21 — 1.9-fold lower, 15 nM
- CN1C(=O)C(NC(=O)CCc2ccc(N)cc2)N=C(c2ccc(C(N)=O)cc2)c2ccccc21 (centres undefined) — higher, > 10000 nM
- CN1C(=O)[C@@H](NC(=O)[C@@H](Cc2ccc(Cl)c(Cl)c2)c2ccccc2)N=C(c2ccccc2)c2ccccc21 — 2.5-fold higher, 72 nM
- C[C@@H](Cc1ccc(Cl)c(Cl)c1)C(=O)N[C@H]1N=C(c2ccccc2)c2ccccc2N(C)C1=O — 11-fold higher, 320 nM
- CN1C(=O)[C@@H](NC(=O)C(Cc2ccc(Cl)c(Cl)c2)c2ccncc2)N=C(c2ccccc2)c2ccccc21 (single isomer, unassigned; diastereomer A) — 47-fold higher, 1360 nM
- C[C@@H](Cc1ccc(Cl)cc1Cl)C(=O)NC1N=C(c2ccc(C(N)=O)cc2)c2ccccc2N(C)C1=O (single isomer, unassigned; diastereomer A) — 17-fold higher, 500 nM
- CC(Cc1ccc(Cl)cc1Cl)C(=O)NC1N=C(c2ccc(C(N)=O)cc2)c2ccccc2N(C)C1=O (centres undefined) — 3.6-fold lower, 8 nM
- CN1C(=O)C(NC(=O)CCc2cccc(Cl)c2Cl)N=C(c2ccc(C(N)=O)cc2)c2ccccc21 (centres undefined) — within 1.5-fold, 22 nM
- COc1ccccc1CCC(=O)NC1N=C(c2ccc(C(N)=O)cc2)c2ccccc2N(C)C1=O (centres undefined) — 180-fold higher, 5100 nM
- CN1C(=O)C(NC(=O)CCc2cccc(O)c2)N=C(c2ccc(C(N)=O)cc2)c2ccccc21 (centres undefined) — 230-fold higher, 6800 nM
- CN1C(=O)[C@@H](NC(=O)[C@H](Cc2ccc(Cl)c(Cl)c2)c2ccc(Br)cc2)N=C(c2ccccc2)c2ccccc21 — 3.4-fold higher, 100 nM
- COc1cccc(CCC(=O)NC2N=C(c3ccc(C(N)=O)cc3)c3ccccc3N(C)C2=O)c1 (centres undefined) — 55-fold higher, 1600 nM
- C[C@@H](Cc1ccc(Cl)cc1Cl)C(=O)N[C@H]1N=C(c2ccccc2)c2ccccc2N(C)C1=O — 28-fold higher, 820 nM
- CN1C(=O)C(NC(=O)CCc2ccccc2)N=C(c2ccc(C(N)=O)cc2)c2ccccc21 (centres undefined) — 12-fold higher, 340 nM
- CN1C(=O)C(NC(=O)CCc2ccc(Cl)cc2Cl)N=C(c2ccc(C(N)=O)cc2)c2ccccc21 (centres undefined) — within 1.5-fold, 33 nM
- CN1C(=O)C(NC(=O)CCc2cc(Cl)cc(Cl)c2)N=C(c2ccc(C(N)=O)cc2)c2ccccc21 (centres undefined) — within 1.5-fold, 40 nM
- CN1C(=O)C(NC(=O)C(C)(C)Cc2ccc(Cl)cc2Cl)N=C(c2ccc(C(N)=O)cc2)c2ccccc21 (centres undefined) — 14-fold higher, 400 nM
- CN1C(=O)C(NC(=O)/C=C/c2ccc(Cl)cc2Cl)N=C(c2ccc(C(N)=O)cc2)c2ccccc21 (centres undefined) — 160-fold higher, 4700 nM
- CN1C(=O)C(NC(=O)CCc2cccc(Cl)c2)N=C(c2ccc(C(N)=O)cc2)c2ccccc21 (centres undefined) — 3.2-fold higher, 93 nM
- CN1C(=O)C(NC(=O)CCc2c(Cl)cccc2Cl)N=C(c2ccc(C(N)=O)cc2)c2ccccc21 (centres undefined) — 110-fold higher, 3200 nM
- C[C@@H](Cc1ccc(Cl)cc1Cl)C(=O)NC1N=C(c2ccc(C(N)=O)cc2)c2ccccc2N(C)C1=O (single isomer, unassigned; diastereomer B) — 15-fold lower, 1.9 nM
- CN1C(=O)C(NC(=O)CCc2ccc(O)cc2)N=C(c2ccc(C(N)=O)cc2)c2ccccc21 (centres undefined) — higher, > 10000 nM
- Cc1nc(C(Cc2ccc(Cl)c(Cl)c2)C(=O)N[C@H]2N=C(c3ccccc3)c3ccccc3N(C)C2=O)cs1 (some centres undefined) — 22-fold higher, 640 nM
- CN1C(=O)C(NC(=O)CCc2cc(C(F)(F)F)cc(C(F)(F)F)c2)N=C(c2ccc(C(N)=O)cc2)c2ccccc21 (centres undefined) — 14-fold higher, 400 nM
- CN1C(=O)[C@@H](NC(=O)[C@H](Cc2ccc(F)c(F)c2)c2ccc(F)cc2)N=C(c2ccccc2)c2ccccc21 — 7.6-fold lower, 3.8 nM
- CN1C(=O)[C@@H](NC(=O)C(Cc2ccc(Cl)c(Cl)c2)c2cccs2)N=C(c2ccccc2)c2ccccc21 (some centres undefined) — within 1.5-fold, 37 nM
